According to publication PMC10765884, “MC180295 is a highly potent and selective CDK9 inhibitor with preclinical in vitro and in vivo efficacy in cancer” (Clinical Epigenetics, 2024):
pIC50: −log10 of the molar value. Converted amounts (≈) assume the structure as drawn.

Columns and labels:
[1] = Liver microsome stability assay; type: in vitro ADME, dog; details: pooled liver microsomes, pH 7.4; for remaining at 1 h, 1 µM: male, beagle, Dog liver microsomes, without NADPH, 60 min, read-out: Stability minus NADPH % Remaining @ 60 min; for half-life at 1 µM: Dog (beagle, male) liver microsomes
Method: Assays were conducted in 96-deep well polypropylene plates. In duplicate, test compounds (1 µM) were incubated in 0.5 mL of 100 mM potassium phosphate buffer (pH 7.4), with 0.5 mg/ml pooled liver microsomes (Life Technologies: CD-1 male mice # MSMCPL; SD male rat # RTMCPL; mixed gender human # HMMCPL. […] At five time points, 75 µL of reaction mixtures were transferred on ice to a 96-shallow well stop plate containing 225 µL acetonitrile with 0.1 µM propafenone. […] Standard curves for test compounds were generated using 5 concentrations (in duplicate) that were processed as above but with no incubation time. Stop plates were centrifuged at 2000xg for 10 min in a Sorvall ST 16 centrifuge, and 170 µL of the supernatants transferred to a Waters® Aquity UPLC (Ultra Performance Liquid Chromatography) 700 µL 96-well sample plate with cap mat. A Waters® Aquity UPLC BEH C18 1.7 µM, 2.1 × 50 mm column, at 40 °C, was used to fractionate 5 µL samples, using a 3 min linear 5 to 95% acetonitrile gradient in 0.1% formic acid with a 0.75 mL/min flow rate. In tandem with UPLC, compound concentrations were analyzed using a Waters® TQ MS mass spectrometer in electrospray-positive mode (source temperature 150 °C; desolvation temperature 450 °C; desolvation flow rate of 900 L/hr). Cone voltages, collision energies, and quantitation were optimized and determined using Waters® QuanOptimize software, with propafenone as an internal standard. MC180379:CV 34; CE 34; mrm 359.15 > 114.91; MC180390 CV 34; CE 28; mrm 359.15 > 114.92. GraphPad® Prism v 5.04 was used for nonlinear fitting of time course data to generate t1/2 and CLint (intrinsic clearance) values.

Kinetic solubility = type: physicochemical; details: Dulbecco's PBS, aqueous buffer, kinetic from dmso stock; PBS (pH 7.4), Free Base
Method: The kinetic solubility of test compounds was determined by adapting Millipore® application note protocol AN1730EN00. Liquid handling was performed using PerkinElmer® Verispan and MDT workstations. In triplicate, 4 µL of 10 mM test compounds in DMSO were added to 196 µL of buffer (Dulbecco’s’ PBS or water). The 200 µM compound solutions, in 2% DMSO, were incubated with gentle shaking for 90 min at RT before vacuum filtration in 96-well polypropylene collection plates, using a Millipore® filtration manifold. 160 µL of filtrate was transferred to a 96-well UV Star analysis plate (Greiner Bio-One® plate # 655,801) containing 40 µL acetonitrile. Standard curves were generated by adding 4 µL of 50 × of five concentrations of test compounds, in DMSO, to 40 µL acetonitrile in UV Star plates, followed by 156 µL buffer. Absorbances at […] were measured using a Molecular Devices® Spectramax Plus microplate reader with Softmax Pro v. 5.4.5 software. Absorbance readings were summed to generate the signal. Test sample concentrations were interpolated from linear standard curves using GraphPad® Prism v 5.04.

[2] = Rat hepatocyte stability assay; type: in vitro ADME; set-up: dose or concentration left out as unconfirmed; details: cryopreserved primary hepatocytes; Rat (Sprague-Dawley) hepatocytes, male
Method: CLint (μL/min/10^6 cells) estimates were determined using a modified method of […] et al.. Cryopreserved rat (Sprague-Dawley) primary hepatocytes (4 male donors) (Life Tech product RTCS10) were rapidly thawed, diluted with Hank's balanced salt solution at 37 °C and centrifuged for 5 min at 100 × g. Resuspended cells were stained with 0.016% trypan blue and counted. Cell viability was > 80%. 0.25 mL of a 1 × 10^6 viable cells/ml cell suspension was added to 16-mm diameter wells of an uncoated polystyrene plate. The prewarmed plate was placed in a 37 °C incubator with 5% CO2 atmosphere, with 100 oscillations/min shaking. After 5 min, 0.25 mL of 2 μM test compound, in prewarmed HBSS, was added per well and mixed to start the reactions, with duplicate reactions per compound. Verapamil was used as a positive control, and cell-free reactions served as negative controls. At each time point (0, 5, 15, 30, 60, 90, and 120 min), 50 μL aliquots were transferred to a 96-well stop plate containing 200 μL/well acetonitrile: water (85:15), with 0.1% formic acid and 0.1 μM propafenone. The plate was centrifuged for 10 min at 2300 × g. 150 μL of the supernatant was transferred to a mass spectrometry sample plate. Samples were analyzed by UPLC/MS, as described in the microsome stability protocol. Results are expressed as t1/2 (min) and in vitro CLint (μL/min/10^6 cells).

CDK16/cyclin Y (PCTAIRE) = molecular target: T1, CDK16/cyclin Y (PCTAIRE) (Homo sapiens, UniProt Q00536); assay: CDK enzymatic assay; type: biochemical; details: Fig. 1A
T1 construct: purchased Reaction Biology Corp
Method: (§1) CDK enzymatic assays were performed by Reaction Biology Corp. (Malvern, PA), using 10 µM ATP for determining MC180295 IC50 values for each CDK family member for which assays were available. Kinase enzymatic assays were also performed by Nanosyn (Santa Clara, CA), using microfluidic technology and MC180295 IC50 curves against 10 CDKs. Selectivity against CDK9 was confirmed for the enantiomers at Reaction Biology Corp. (Malvern, PA).

CDK19/cyclin C = molecular target: T2, CDK19/cyclin C (Homo sapiens, UniProt Q9BWU1); assay: CDK enzymatic assay; type: biochemical; details: Fig. 1A
T2 construct: purchased Reaction Biology Corp
Method: as §1

CDK9/cyclin T1 = CDK9/cyclin T1 (Homo sapiens, UniProt P50750); assay: CDK enzymatic assay; type: biochemical; details: Fig. 1A
Method: as §1

CDK3/cyclin E2 = molecular target: T3, CDK3/cyclin E2 (Homo sapiens, UniProt Q00526); assay: CDK enzymatic assay; type: biochemical; details: Fig. 1A
T3 construct: purchased Reaction Biology Corp
Method: as §1

CDK6-Cyclin D3 = molecular target: T4, CDK6-Cyclin D3 (Homo sapiens, UniProt Q00534); assay: CDK enzymatic assay; type: biochemical; details: Fig. 1A
T4 construct: purchased Nanosyn
Method: as §1

CDK17/cyclin Y (PCTK2) = molecular target: T5, CDK17/cyclin Y (PCTK2) (Homo sapiens, UniProt Q00537); assay: CDK enzymatic assay; type: biochemical; details: Fig. 1A
T5 construct: purchased Reaction Biology Corp
Method: as §1

CDK9/cyclin T2 = molecular target: T6, CDK9/cyclin T2 (Homo sapiens, UniProt P50750); assay: CDK enzymatic assay; type: biochemical; details: Fig. 1A
T6 construct: purchased Reaction Biology Corp
Method: as §1

CDK14/cyclin Y (PFTK1) = molecular target: T7, CDK14/cyclin Y (PFTK1) (Homo sapiens, UniProt O94921); assay: CDK enzymatic assay; type: biochemical; details: Fig. 1A
T7 construct: purchased Reaction Biology Corp
Method: as §1

CDK8/cyclin C = molecular target: T8, CDK8/cyclin C (Homo sapiens, UniProt P49336); assay: CDK enzymatic assay; type: biochemical; details: Fig. 1A
T8 construct: purchased Reaction Biology Corp
Method: as §1

CDK18/cyclin Y (PCTK3) = molecular target: T9, CDK18/cyclin Y (PCTK3) (Homo sapiens, UniProt Q07002); assay: CDK enzymatic assay; type: biochemical; details: Fig. 1A
T9 construct: purchased Reaction Biology Corp
Method: as §1

T7 sequence (O94921 whole entry): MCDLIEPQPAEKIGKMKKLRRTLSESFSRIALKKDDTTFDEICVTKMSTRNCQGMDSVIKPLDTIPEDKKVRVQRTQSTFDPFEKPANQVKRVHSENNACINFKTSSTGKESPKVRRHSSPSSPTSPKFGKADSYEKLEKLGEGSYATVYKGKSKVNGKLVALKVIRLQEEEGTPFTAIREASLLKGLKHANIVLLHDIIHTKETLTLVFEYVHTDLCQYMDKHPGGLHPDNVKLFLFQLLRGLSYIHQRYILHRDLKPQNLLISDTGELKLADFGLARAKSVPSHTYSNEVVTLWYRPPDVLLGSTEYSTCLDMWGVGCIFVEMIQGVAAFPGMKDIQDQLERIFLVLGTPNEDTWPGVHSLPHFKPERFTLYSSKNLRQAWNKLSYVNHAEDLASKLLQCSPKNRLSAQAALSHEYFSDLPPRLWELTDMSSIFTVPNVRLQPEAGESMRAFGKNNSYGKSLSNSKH
T7 sequence (Q8ND76 whole entry partner): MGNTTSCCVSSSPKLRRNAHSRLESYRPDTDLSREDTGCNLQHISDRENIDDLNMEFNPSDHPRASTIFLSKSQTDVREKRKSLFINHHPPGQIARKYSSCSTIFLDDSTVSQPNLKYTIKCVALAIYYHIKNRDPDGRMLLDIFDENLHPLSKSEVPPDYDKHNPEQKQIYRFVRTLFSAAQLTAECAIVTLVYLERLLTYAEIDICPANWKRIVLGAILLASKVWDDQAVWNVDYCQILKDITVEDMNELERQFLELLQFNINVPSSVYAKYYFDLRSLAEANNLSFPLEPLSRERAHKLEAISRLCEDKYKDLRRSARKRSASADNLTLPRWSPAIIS
T4 sequence (Q00534 whole entry): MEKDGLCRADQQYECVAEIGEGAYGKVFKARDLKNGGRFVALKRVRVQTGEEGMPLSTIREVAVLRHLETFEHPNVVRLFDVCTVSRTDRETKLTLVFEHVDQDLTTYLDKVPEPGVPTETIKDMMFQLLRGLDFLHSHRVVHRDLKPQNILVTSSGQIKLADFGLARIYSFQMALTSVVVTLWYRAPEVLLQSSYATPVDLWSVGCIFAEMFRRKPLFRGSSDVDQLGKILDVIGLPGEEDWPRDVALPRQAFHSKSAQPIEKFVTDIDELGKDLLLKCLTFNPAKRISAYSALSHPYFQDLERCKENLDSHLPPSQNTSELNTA
T4 sequence (P30281 whole entry partner): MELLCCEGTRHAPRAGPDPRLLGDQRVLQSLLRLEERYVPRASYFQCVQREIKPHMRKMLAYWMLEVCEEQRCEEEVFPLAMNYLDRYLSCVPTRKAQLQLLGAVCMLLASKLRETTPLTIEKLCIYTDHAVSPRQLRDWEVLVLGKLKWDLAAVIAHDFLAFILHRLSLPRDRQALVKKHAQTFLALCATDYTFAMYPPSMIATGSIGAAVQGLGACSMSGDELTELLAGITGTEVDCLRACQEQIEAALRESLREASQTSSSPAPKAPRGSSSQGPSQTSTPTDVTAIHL
T1 sequence (Q00536 whole entry): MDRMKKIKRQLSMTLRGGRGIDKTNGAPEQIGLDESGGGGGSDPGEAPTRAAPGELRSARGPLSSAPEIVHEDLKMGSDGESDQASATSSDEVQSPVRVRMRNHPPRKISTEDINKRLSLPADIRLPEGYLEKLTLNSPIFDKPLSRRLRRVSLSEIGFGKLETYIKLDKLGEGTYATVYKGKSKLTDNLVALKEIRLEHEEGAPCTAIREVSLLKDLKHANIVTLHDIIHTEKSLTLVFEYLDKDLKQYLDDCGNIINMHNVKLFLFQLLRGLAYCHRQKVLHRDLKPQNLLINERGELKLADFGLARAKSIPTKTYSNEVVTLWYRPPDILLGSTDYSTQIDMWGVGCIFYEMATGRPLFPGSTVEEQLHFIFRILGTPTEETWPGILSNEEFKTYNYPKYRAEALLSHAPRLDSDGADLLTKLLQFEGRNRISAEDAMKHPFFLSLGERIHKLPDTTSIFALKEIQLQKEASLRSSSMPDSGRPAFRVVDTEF
T1 sequence (Q8ND76 whole entry partner): as the sequence (Q8ND76 whole entry partner) above
T5 sequence (Q00537 whole entry): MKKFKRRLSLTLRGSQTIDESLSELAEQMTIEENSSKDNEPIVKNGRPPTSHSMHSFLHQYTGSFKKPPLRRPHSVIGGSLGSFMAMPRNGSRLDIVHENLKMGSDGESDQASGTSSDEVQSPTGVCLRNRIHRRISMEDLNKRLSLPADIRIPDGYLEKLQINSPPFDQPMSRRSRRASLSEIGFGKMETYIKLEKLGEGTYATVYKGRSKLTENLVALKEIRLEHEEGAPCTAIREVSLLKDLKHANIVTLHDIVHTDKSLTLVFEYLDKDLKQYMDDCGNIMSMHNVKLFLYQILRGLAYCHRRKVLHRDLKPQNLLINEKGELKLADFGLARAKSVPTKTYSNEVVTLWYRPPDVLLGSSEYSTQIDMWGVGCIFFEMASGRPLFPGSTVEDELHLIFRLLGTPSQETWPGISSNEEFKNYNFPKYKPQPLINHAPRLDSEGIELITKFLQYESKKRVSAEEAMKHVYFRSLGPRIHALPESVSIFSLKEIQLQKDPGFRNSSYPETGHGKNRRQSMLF
T5 sequence (Q8ND76 whole entry partner): as the sequence (Q8ND76 whole entry partner) above
T8 sequence (P49336 whole entry): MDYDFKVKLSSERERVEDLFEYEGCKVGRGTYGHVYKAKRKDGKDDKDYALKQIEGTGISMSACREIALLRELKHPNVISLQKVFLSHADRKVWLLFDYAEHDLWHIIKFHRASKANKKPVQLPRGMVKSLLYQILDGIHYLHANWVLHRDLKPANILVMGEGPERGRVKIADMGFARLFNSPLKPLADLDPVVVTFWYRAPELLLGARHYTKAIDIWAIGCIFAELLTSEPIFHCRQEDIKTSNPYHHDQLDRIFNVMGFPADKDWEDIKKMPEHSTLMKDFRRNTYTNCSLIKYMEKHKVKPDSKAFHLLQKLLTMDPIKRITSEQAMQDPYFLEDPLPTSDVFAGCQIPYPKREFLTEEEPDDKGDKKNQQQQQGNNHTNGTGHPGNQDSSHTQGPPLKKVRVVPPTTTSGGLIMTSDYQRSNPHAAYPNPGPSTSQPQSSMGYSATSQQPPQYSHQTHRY
T8 sequence (P24863 whole entry partner): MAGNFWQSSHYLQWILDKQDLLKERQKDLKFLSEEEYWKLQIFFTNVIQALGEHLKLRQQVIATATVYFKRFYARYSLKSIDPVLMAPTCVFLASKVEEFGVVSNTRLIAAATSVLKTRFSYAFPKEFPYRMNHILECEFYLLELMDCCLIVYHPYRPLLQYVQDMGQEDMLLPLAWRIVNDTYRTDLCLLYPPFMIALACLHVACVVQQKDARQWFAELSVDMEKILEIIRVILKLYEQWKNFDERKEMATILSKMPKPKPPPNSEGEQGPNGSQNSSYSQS
CDK9/cyclin T1, sequence (P50750 whole entry): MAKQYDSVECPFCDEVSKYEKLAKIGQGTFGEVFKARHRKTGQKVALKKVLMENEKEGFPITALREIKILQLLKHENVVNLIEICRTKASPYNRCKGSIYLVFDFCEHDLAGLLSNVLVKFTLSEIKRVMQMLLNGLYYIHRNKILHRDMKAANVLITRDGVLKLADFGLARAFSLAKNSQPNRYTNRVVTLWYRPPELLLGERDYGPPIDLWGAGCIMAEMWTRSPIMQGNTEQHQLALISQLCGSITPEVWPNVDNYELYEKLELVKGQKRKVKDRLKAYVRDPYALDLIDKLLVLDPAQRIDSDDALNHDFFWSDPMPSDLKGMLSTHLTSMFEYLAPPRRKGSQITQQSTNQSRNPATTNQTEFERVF
CDK9/cyclin T1, sequence (O60563 whole entry partner): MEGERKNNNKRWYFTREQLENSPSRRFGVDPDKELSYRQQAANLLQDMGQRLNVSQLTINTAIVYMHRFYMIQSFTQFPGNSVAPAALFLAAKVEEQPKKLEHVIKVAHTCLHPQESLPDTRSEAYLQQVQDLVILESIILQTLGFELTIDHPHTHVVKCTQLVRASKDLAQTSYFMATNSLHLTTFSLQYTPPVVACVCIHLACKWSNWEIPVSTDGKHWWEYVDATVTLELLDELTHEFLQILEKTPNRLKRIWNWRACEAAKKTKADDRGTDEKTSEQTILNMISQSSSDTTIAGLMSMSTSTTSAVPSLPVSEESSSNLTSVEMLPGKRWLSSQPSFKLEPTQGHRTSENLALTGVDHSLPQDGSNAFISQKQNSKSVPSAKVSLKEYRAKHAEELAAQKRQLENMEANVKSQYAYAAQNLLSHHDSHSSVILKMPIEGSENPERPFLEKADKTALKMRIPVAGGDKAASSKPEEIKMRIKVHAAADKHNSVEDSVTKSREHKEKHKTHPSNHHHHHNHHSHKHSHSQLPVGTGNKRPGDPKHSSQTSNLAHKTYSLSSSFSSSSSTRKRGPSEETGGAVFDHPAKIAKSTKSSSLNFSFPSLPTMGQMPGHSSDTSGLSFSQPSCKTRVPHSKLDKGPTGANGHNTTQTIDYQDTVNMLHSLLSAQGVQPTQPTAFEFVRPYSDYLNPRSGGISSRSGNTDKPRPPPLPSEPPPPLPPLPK
T9 sequence (Q07002 whole entry): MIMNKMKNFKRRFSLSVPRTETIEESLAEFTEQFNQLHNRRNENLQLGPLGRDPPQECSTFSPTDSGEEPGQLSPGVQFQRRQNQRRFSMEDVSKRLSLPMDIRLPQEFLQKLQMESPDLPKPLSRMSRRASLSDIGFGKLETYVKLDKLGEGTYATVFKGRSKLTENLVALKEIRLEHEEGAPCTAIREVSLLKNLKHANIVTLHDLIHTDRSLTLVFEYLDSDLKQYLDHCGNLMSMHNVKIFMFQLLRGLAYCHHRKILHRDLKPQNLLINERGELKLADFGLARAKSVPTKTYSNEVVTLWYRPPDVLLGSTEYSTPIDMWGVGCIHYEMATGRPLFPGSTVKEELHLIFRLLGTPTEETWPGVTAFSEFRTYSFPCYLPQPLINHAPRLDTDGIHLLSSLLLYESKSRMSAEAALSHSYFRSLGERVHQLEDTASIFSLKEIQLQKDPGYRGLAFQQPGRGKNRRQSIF
T9 sequence (Q8ND76 whole entry partner): as the sequence (Q8ND76 whole entry partner) above

| Structure (SMILES) | remaining at 1 h, 1 µM [1] [%] | half-life at 1 µM [1] [min] | solubility at 90 min (Kinetic solubility) [µM] | half-life [2] [min] | pIC50 (CDK16/cyclin Y (PCTAIRE)) | pIC50 (CDK19/cyclin C) | pIC50 (CDK9/cyclin T1) | pIC50 (CDK3/cyclin E2) | pIC50 (CDK6-Cyclin D3) | pIC50 (CDK17/cyclin Y (PCTK2)) | pIC50 (CDK9/cyclin T2) | pIC50 (CDK14/cyclin Y (PFTK1)) | pIC50 (CDK8/cyclin C) | pIC50 (CDK18/cyclin Y (PCTK3)) |
| --- | --- | --- | --- | --- | --- | --- | --- | --- | --- | --- | --- | --- | --- | --- |
| Nc1nc(N[C@H]2C[C@@H]3CC[C@H]2C3)sc1C(=O)c1ccccc1[N+](=O)[O-] [MC180380] | 88 | 52.5 | 52.6 (≈ 18.9 µg/mL) | 11.7 | – | – | – | – | – | – | – | – | – | – |
| Nc1nc(N[C@H]2C[C@@H]3CC[C@H]2C3)sc1C(=O)c1ccccc1[N+](=O)[O-] (relative stereo) [MC180295] | – | – | – | – | 5.93 | 6.09 | 7.92 | 6.40 | 6.15 | 6.36 | 8.52 | 6.28 | 6.30 | 5.97 |
| Nc1nc(N[C@@H]2C[C@H]3CC[C@@H]2C3)sc1C(=O)c1ccccc1[N+](=O)[O-] [MC180379] | 88 | 36.2 | 53.5 (≈ 19.2 µg/mL) | 4.1 | – | – | – | – | – | – | – | – | – | – |
